Reference: patent US6433023B1, “Compositions having anti-leishmanial activity” (The United States of America as represented by the …, priority 1997, dated 2002)
Like-named read-outs stand apart in the source and are kept apart here.

System: Leishmania promastigotes
Experiment: Testing of agents against Leishmania species in parasite culture medium (anti-leishmanial activity)
Assay type: cell-based
Conditions: for IC50: read-out: concentrations effective at the IC50 level; for effectiveness compared with trifluralin: comparison with trifluralin
Excerpt: […]-3,5-dinitrobenzotrifluoride (compound 1), 4-chloro-3-nitrobenzotrifluoride (compound 4), 3-amino-4-chlorobenzotrifluoride (compound 5), 2-bromo-3,5(bis(trifluoromethyl)aniline (compound 6), 4-methoxy-3-nitrobenzotrifluoride (compound 7), and 2-nitro-4-(trifluoromethyl)thiophenol (compound 8) were obtained from Aldrich Chemical Company and were used to without further purification. Trifluralin was obtained from Reidel de Haen and was used without further purification. 4-chloro-3-nitro-5-sulfonylbenzotrifluoride (compound 2) and 4-chloro-3-nitro-5-carboxybenzotrifluoride (compound 3) were obtained from the Walter Reed Army Institute of Research inventory and were used without further purification. All of the agents were initially dissolved in dimethyl sulfoxide and were then diluted at 100 fold in parasitic culture medium before being tested against Leishmania species. […]

[1] = against Leishmania species, agents dissolved in dimethyl sulfoxide, diluted 100 fold in parasitic culture medium

Row | SMILES | IC50 (Leishmania) | effectiveness compared with trifluralin (against Leishmania species) | IC50 [1]
1 | O=[N+]([O-])c1cc(C(F)(F)F)cc([N+](=O)[O-])c1Cl [compound 1, 4-chloro-3,5 dinitrobenzotrifluoride] | 0.89 µM | much more effective than trifluralin | –
2 | O=[N+]([O-])C1=CC(C(F)(F)F)=CC(=S(=O)=O)C1Cl (stereo not drawn) [compound 2, 4-chloro-3-nitro-5-sulfonylbenzotrifluoride] | – | much more effective than trifluralin | 6.1 µM
3 | O=C(O)c1cc(C(F)(F)F)cc([N+](=O)[O-])c1Cl [compound 3, 4-chloro-3-nitro-5-carboxybenzotrifluoride] | – | – | 120 µM
4 | O=[N+]([O-])c1cc(C(F)(F)F)ccc1Cl [compound 4, 4-chloro-3-nitrobenzotrifluoride] | – | much more effective than trifluralin | 35 µM
5 | Nc1cc(C(F)(F)F)ccc1Cl [compound 5, 3-amino-4-chlorobenzotrifluoride] | – | – | 77 µM
6 | Nc1cc(C(F)(F)F)cc(C(F)(F)F)c1Br [compound 6, 2-bromo-3,5-bis(trifluoromethyl)aniline] | – | – | 26 µM
7 | COc1ccc(C(F)(F)F)cc1[N+](=O)[O-] [compound 7, 4-methoxy-3-nitrobenzotrifluoride] | – | – | 68 µM
8 | O=[N+]([O-])c1cc(C(F)(F)F)ccc1S [compound 8, 2-nitro-4-(trifluoromethyl)thiophenol] | – | much more effective than trifluralin | 15 µM
